The values that follow come from PubChem BioAssay AID1417 (Emory University Molecular Libraries Screening Center, 2008).

The target of this test is Induced myeloid leukemia cell differentiation protein Mcl-1 (Homo sapiens) (UniProt Q07820). Briefly: Mcl-1 Noxa peptide disruption concentration-response – biochemical, TR-FRET, dose response (AID 1417). To be noted: Mcl-1/Noxa peptide interaction, cell-free TR-FRET (terbium/rhodamine), 2 h; measured here: absolute IC50.
Chain of Induced myeloid leukemia cell differentiation protein Mcl-1 (Homo sapiens) (Q07820 whole entry, looked up): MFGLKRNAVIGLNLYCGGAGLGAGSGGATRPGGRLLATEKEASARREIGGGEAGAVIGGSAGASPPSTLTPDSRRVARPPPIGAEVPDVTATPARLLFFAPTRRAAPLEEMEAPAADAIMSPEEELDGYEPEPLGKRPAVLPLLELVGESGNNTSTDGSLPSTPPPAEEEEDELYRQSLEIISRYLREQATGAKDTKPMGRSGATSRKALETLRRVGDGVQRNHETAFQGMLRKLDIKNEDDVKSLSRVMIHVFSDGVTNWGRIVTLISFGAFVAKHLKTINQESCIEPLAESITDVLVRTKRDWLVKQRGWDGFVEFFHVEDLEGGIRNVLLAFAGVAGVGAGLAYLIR
What is called IC50 is the concentration at which inhibition is half-maximal. A high value points to a need for much substance. As for `Cc1cc2c(C(C)C)c(O)c(O)c(C=O)c2c(O)c1-c1c(C)cc2c(C(C)C)c(O)c(O)c(C=O)c2c1O`, the half-maximal inhibitory concentration (IC50) is less than 0.4 µM.
The compound `COc1cc(/C=C/C(=O)OCC(=O)Nc2cc(C)c(C)cc2[N+](=O)[O-])ccc1O` gave an IC50 of 2.4 µM.
Consider `Cc1cc(=O)n2[nH]c(-c3ccsc3-n3c(C)ccc3C)cc2n1`, for which the IC50 stood at 2.89 µM.
The figure for `Oc1c(Cl)cc(Cl)c(Cl)c1Cc1c(O)c(Cl)cc(Cl)c1Cl` is less than 0.4 µM; for `O=C1NC(=O)C(=Cc2ccc(-c3cc(Cl)ccc3[N+](=O)[O-])o2)C(=O)N1` it is 3.25 µM; for `CCN(CC)c1ccc(NC(=O)c2ccc3c(c2)c(C)c(C)n3C)cc1` it is more than 54 µM.
In turn, `CC(/C=C1\SC(=S)N(CCCC(=O)Nc2ccc(C(=O)O)c(O)c2)C1=O)=C\c1ccccc1` displayed an IC50 of less than 0.4 µM.
As for `Cc1ccc(S(=O)(=O)Nc2ccc(N(C)C)cc2)cc1`, the IC50 is more than 54 µM.
`O=C(Nc1cccc(Cl)c1)Nc1nnc(-c2ccncc2)s1` registered an IC50 of 4.03 µM.
Compound `O=[N+]([O-])c1cc(/C=N/Nc2nc3ccccc3[nH]2)c(O)cc1O` yielded an IC50 of 13.3 µM.
The figure for `O=C(N/N=C/c1cccc(F)c1)c1cc(-c2ccco2)nc2ccccc12` is less than 0.4 µM; for `CN(C)c1ccc(NC(=O)c2ccc([N+](=O)[O-])cc2Cl)cc1` it is more than 54 µM; for `COc1ccc(CCNC(=O)c2ccc3nc(-c4ccco4)c(-c4ccco4)nc3c2)cc1OC` it is 4.47 µM.
The compound `Nc1c(C(=O)NCC2CCCO2)sc2nc3c(c(-c4ccco4)c12)CC/C3=C\c1ccco1` (centres undefined) registered an IC50 of 0.8 µM.
Compound `Cc1c(C(=O)N/N=C/c2ccc(-c3ccccc3[N+](=O)[O-])o2)sc(N)c1C#N` came in with an IC50 of 1.69 µM.
The compound `O=C(Cn1nc(C(=O)O)c2ccccc2c1=O)Nc1ccc2c(c1)C(=O)c1ccccc1C2=O` gave an IC50 of 4.62 µM.
The compound `COC(=O)c1c(NC(=O)Cc2cccs2)sc2c1CCCC2` registered an IC50 of 8.95 µM.
`CCOc1cc(/C=N/Nc2nc(-c3cccs3)c(NC(C)=O)s2)ccc1O` showed an IC50 of less than 0.4 µM.
With `COc1ccc(C(c2c(O)cc(C)oc2=O)c2c(O)cc(C)oc2=O)cc1` the figure was more than 54 µM; with `NC(=O)c1c(Nc2nc3c(F)cccc3s2)sc2c1CCCC2`, less than 0.4 µM; with `CN(C)c1ccc(/C=c2\sc3nc(-c4ccccc4)nn3c2=O)cc1`, 8.8 µM.
The figure for `O=[N+]([O-])c1cc(Cl)cc(/C=N/NC(=S)Nc2ccc(S(=O)(=O)N3CCOCC3)cc2)c1O` is less than 0.4 µM; for `O=C(O)CCN1C(=O)/C(=C/c2cn(-c3ccccc3)nc2-c2cccs2)SC1=S` it is more than 54 µM; for `CC1=Nc2ccc(C)cc2/C1=C/c1c(N)n2c(S(=O)(=O)C(C)C)nsc2nc1=O` it is more than 54 µM.
As for `CC1=C(C#N)c2nc(N)c(C#N)c(C)c2/C1=C\c1ccc(-c2ccccc2C(=O)O)o1`, the IC50 came out at 2.98 µM.
`N=c1c(C(=O)NCc2ccc(F)cc2)cc2c(=O)n3ccccc3nc2n1Cc1cccnc1` came in with an IC50 of 3.21 µM.
In turn, `COc1ccc(C(=O)Nc2cccc(/C=C(\CCC(=O)O)c3nc4ccccc4s3)c2)cc1` came in with an IC50 of 3.94 µM.
`C/C(=N\NC(=O)c1cccc(N/N=C(\C)c2ccco2)c1)c1ccco1`: the IC50 turned out to be 2.88 µM.
With `CCN(CC)C(=O)CC(c1cc(OC)c(OC)c(OC)c1)c1c(OC)cc(OC)c2c(-c3ccccc3)cc(=O)oc12` (centres undefined), the IC50 amounted to 4.05 µM.
As to `CC(C)CC1NC(=O)N(CC(=O)N2c3ccccc3NC(=O)C2(C)C)C1=O` (centres undefined), the IC50 is more than 54 µM.
As to `CCN(CC)c1ccc(/C=N/N2CCN(Cc3ccccc3)CC2)cc1`, the half-inhibitory concentration (IC50) is more than 54 µM.
As to `CCOC(=O)c1c(NC(C)=O)sc2c(O)c(Br)cc(Br)c12`, the IC50 is 8.58 µM.
Compound `CCC1CCCCN1S(=O)(=O)c1ccc(S(=O)(=O)N(Cc2ccccn2)CC2CCCO2)cc1` (centres undefined) registered an IC50 of more than 54 µM.
Regarding `O=[N+]([O-])c1ccc(-c2cn(-c3ccc(Cl)cc3)c(=S)[nH]2)cc1`, the IC50 is 7.17 µM.
With `O=[N+]([O-])c1ccc2[nH]c(O)c(N=NC(=S)Nc3cccnc3)c2c1`, the IC50 turned out to be 8.86 µM.
In turn, `COC/C=C/C1=CC2=CC(=O)C(C)(OC(=O)c3ccco3)C(=O)C2=CO1` (centres undefined) showed an IC50 of 2.78 µM.
Consider `Cc1ccc2c(c1)C1CN(C)CCC1N2C(=O)Nc1cccc(Cl)c1` (centres undefined), for which the IC50 was more than 54 µM.
For the compound `C1=CC2c3ccccc3NC(c3ccncc3)C2C1` (centres undefined), the concentration for half-maximal inhibition (IC50) turned out to be 1.81 µM.
In turn, `COc1ccc2nc(-n3c(O)c(C4=c5ccccc5=NC4=O)[nH]c3=S)sc2c1` returned a concentration for half-maximal inhibition (IC50) of less than 0.4 µM.
As to `COc1ccc(N2C(=O)/C(=C/C=C/c3ccccc3[N+](=O)[O-])C(=O)NC2=S)cc1`, the IC50 is less than 0.4 µM.
For `COc1cc(/C=C2\SC(=O)N(Cc3ccc(Cl)cc3)C2=O)cc([N+](=O)[O-])c1O`, the IC50 came out at 7.11 µM.
On to `COc1ccc(C(=O)O)cc1NC(=S)NC(=O)c1ccc(-c2ccc(Cl)cc2)o1`, for which the IC50 is more than 54 µM.
The compound `CCN(CC)c1ccc(NC(=O)/C=C\c2ccccc2Cl)cc1` registered an IC50 of less than 0.4 µM.
With `Cc1ccc(N2C(=O)NC(=O)/C(=C/c3ccoc3)C2=O)cc1`, the IC50 worked out at 4.36 µM.
With `COc1ccc(-c2ccc3c(n2)sc2c(=O)[nH]c(=O)[nH]c23)cc1OC` the figure was less than 0.4 µM; with `NS(=O)(=O)c1ccc(NC(=S)NC(=O)/C=C/c2ccco2)cc1`, 6.75 µM.
For `CCN1C(=O)/C(=C\c2ccc(-c3ccc([N+](=O)[O-])cc3OC)o2)SC1=Nc1cccc(C(=O)O)c1`, the IC50 was less than 0.4 µM.
The figure for `CCSc1ncc(/C=N/Nc2ccc([N+](=O)[O-])cc2)n1C` is 2.12 µM.
For the compound `O=C1c2ccccc2C(=O)N1/N=C/c1ccc(O)c(O)c1O`, the IC50 was less than 0.4 µM.
`O=C1NC(=Nc2ccccc2)S/C1=C\C=C\c1ccco1` showed an IC50 of less than 0.4 µM.
With `COc1cccc2c(=S)c(CCC(C)=O)c(C)[nH]c12`, the IC50 is 0.718 µM.
`CN1CCN(c2ccc([N+](=O)[O-])cc2/C=N/NC(=O)c2cccc([N+](=O)[O-])c2)CC1` came in with an IC50 of 1.42 µM.
As to `CN1CCN(c2ccc([N+](=O)[O-])cc2/C=N/NC(=O)c2ccc(F)cc2)CC1`, the IC50 amounted to 4.75 µM.
The compound `COc1cc(/C=C/c2nc3ccccc3c(=O)n2-c2cccc(O)c2)ccc1O` returned an IC50 of 10.5 µM.
With `Cc1ccc(C(=O)COC(=O)CNC(=O)c2ccc(N3C(=O)c4ccccc4C3=O)cc2)cc1C` the figure was more than 54 µM; with `COCCN=c1scc(-c2ccco2)n1/N=C/c1ccc(O)c(O)c1O`, less than 0.4 µM.
As to `N=C1S/C(=C\c2ccc(-c3cccc(Cl)c3)o2)C(=O)N1c1nccs1`, the IC50 worked out at 0.861 µM.
With `O=C(/C=C\c1ccco1)c1ccc(NC(=O)c2ccco2)cc1` the figure was 3.3 µM; with `N=c1oc2cc(O)ccc2cc1C(=O)Nc1nc2ccccc2s1`, 2.93 µM.
The compound `CCOC(=O)c1sc2nc3c(SCCC(=O)O)cc(C(=O)c4cc(OC)ccc4O)cn3c(=O)c2c1C` yielded an IC50 of 0.955 µM.
The compound `O=C(O[C@@H]1OC2COC(=O)c3cc(O)c(O)c(O)c3-c3c(cc(O)c(O)c3O)C(=O)O[C@@H]([C@H]1O)[C@@H]2O)c1cc(O)c(O)c(O)c1` displayed an IC50 of less than 0.4 µM.
With `COC(=O)[C@@]1(Cc2ccccc2)[C@H]2c3cc(C(=O)N4CCCC4)n(CCSCCO)c3C[C@H]2CN1C(=O)c1ccccc1` the figure was more than 54 µM; with `O=C1SC(SCc2ccccc2Cl)=N/C1=C\c1ccc(C(=O)O)cc1`, 4.67 µM.
The figure for `COC(=O)C1=Nc2ccccc2/C1=C\c1c(O)n(-c2ccc(Br)cc2)c(=O)[nH]c1=O` is 7.49 µM.
